Assay results reported in the supplement of paper PMC10307832.

What was measured:
Assay in all cases: relative viability (nuclei count vs DMSO), 5 days (fraction); higher = more cells survive
[1] = compound: CN1CCC(CC1)OC2=CC(=C(C=C2)NC3=NC=C4C(=N3)N(C(=O)N4C)C5CCCC5)OC [AZ3146] + Nc1ncn([C@H]2C[C@H](O)[C@@H](CO)O2)c(=O)n1 [Decitabine] (partner 2 µM)
Outline: (§1)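 One day after seeding in 1536-well plates, lung cancer cell lines were dosed by pin tool. Dosing was either single-drug or a fixed anchor-drug dose plus five library-drug doses (not always all listed) in √10 steps. After 5 days, nuclei were stained in one fix-and-stain step and counted on 4× images, and relative viability is the nuclei count of treated wells over that of vehicle wells, given as the median of duplicate plates.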

[2] = compound: CN1CCC(CC1)OC2=CC(=C(C=C2)NC3=NC=C4C(=N3)N(C(=O)N4C)C5CCCC5)OC [AZ3146] + Cc1cc(Nc2cc(N3CCN(C)CC3)nc(Sc3ccc(NC(=O)C4CC4)cc3)n2)n[nH]1 [Tozasertib] (partner 0.1 µM)
Outline: as §1

[3] = compound: CCOC(=O)CCNc1cc(N2CCc3ccccc3CC2)nc(-c2ccccn2)n1 [GSK-J4] + CS(=O)(=O)CCNCc1ccc(-c2ccc3ncnc(Nc4ccc(OCc5cccc(F)c5)c(Cl)c4)c3c2)o1 [Lapatinib] (partner 2 µM)
Outline: as §1

[4] = compound: CCOC(=O)CCNc1cc(N2CCc3ccccc3CC2)nc(-c2ccccn2)n1 [GSK-J4] + O=C(c1cc(Cc2n[nH]c(=O)c3ccccc23)ccc1F)N1CCN(C(=O)C2CC2)CC1 [Olaparib] (partner 8 µM)
Outline: as §1

| Cell Line | relative viability ([1]; first compound 0.08 µM) | relative viability ([1]; first compound 0.253 µM) | relative viability ([1]; first compound 0.8 µM) | relative viability ([1]; first compound 2.53 µM) | relative viability ([1]; first compound 8 µM) | relative viability ([2]; first compound 0.08 µM) | relative viability ([2]; first compound 0.253 µM) | relative viability ([2]; first compound 0.8 µM) | relative viability ([2]; first compound 2.53 µM) | relative viability ([2]; first compound 8 µM) | relative viability ([3]; first compound 0.5 µM) | relative viability ([3]; first compound 1.581 µM) | relative viability ([3]; first compound 5 µM) | relative viability ([3]; first compound 15.81 µM) | relative viability ([3]; first compound 50 µM) | relative viability ([4]; first compound 0.5 µM) | relative viability ([4]; first compound 1.581 µM) | relative viability ([4]; first compound 5 µM) | relative viability ([4]; first compound 15.81 µM) | relative viability ([4]; first compound 50 µM) |
| --- | --- | --- | --- | --- | --- | --- | --- | --- | --- | --- | --- | --- | --- | --- | --- | --- | --- | --- | --- | --- |
| LOU-NH91 | 0.816 | 0.77 | 0.886 | 0.829 | 0.783 | 0.453 | 0.668 | 0.664 | 0.525 | 0.365 | 0.688 | 0.754 | 0.626 | 0.625 | 0.64 | 0.932 | 0.859 | 0.691 | 0.872 | 0.802 |
| LU99A | – | 0.848 | 0.879 | 0.82 | 1.02 | 0.279 | 0.269 | 0.248 | 0.238 | 0.245 | 0.992 | 0.79 | 0.842 | 0.921 | 0.607 | 0.248 | 0.265 | – | 0.207 | 0.205 |
| NCI-H441 | 0.203 | 0.284 | 0.259 | 0.254 | 0.237 | 0.676 | 0.701 | 0.595 | 0.588 | 0.266 | – | – | – | – | – | 0.605 | 0.487 | 0.406 | 0.515 | 0.422 |
| NCI-H522 | 0.732 | 0.589 | 0.683 | 0.616 | 0.714 | 0.533 | 0.512 | 0.582 | 0.455 | 0.587 | – | – | – | – | – | 0.597 | 0.552 | – | 0.531 | 0.409 |
| NCI-H1299 | – | – | – | – | – | – | – | – | – | – | 0.861 | 0.924 | 0.851 | 0.953 | 0.875 | 0.96 | 0.916 | 0.878 | 0.929 | 0.772 |
| NCI-H1563 | – | – | – | – | – | – | – | – | – | – | 0.821 | 0.621 | 0.784 | 0.834 | 0.892 | – | – | – | – | – |
| NCI-H1623 | – | – | – | – | – | 0.46 | 0.404 | 0.461 | 0.481 | 0.4 | – | – | – | – | – | – | – | – | – | – |
| NCI-H1648 | – | – | 0.514 | 0.562 | 0.429 | – | 0.303 | 0.54 | 0.58 | 0.406 | – | – | – | – | – | 0.869 | – | 1.44 | – | 0.793 |
| NCI-H1703 | – | – | – | – | – | – | – | – | – | – | 0.937 | 0.912 | 0.84 | 1.11 | 0.695 | 0.385 | 0.576 | 0.372 | 0.362 | 0.422 |
| NCI-H1792 | 0.399 | 0.503 | 0.54 | 0.641 | 0.669 | – | – | – | – | – | 0.932 | 0.705 | 0.835 | 0.782 | 0.692 | 0.45 | 0.286 | 0.309 | 0.429 | 0.341 |
| NCI-H2228 | – | – | – | – | – | 0.224 | 0.385 | 0.292 | 0.198 | 0.18 | 1.11 | 0.598 | 1.17 | 0.943 | 0.938 | 0.555 | 0.608 | 0.583 | 0.728 | 0.903 |
| NCI-H2342 | 0.653 | 0.681 | 0.756 | 0.683 | 0.714 | 0.329 | 0.654 | 0.518 | 0.505 | 0.353 | – | – | – | – | – | 0.368 | 0.427 | 0.501 | 0.431 | 0.476 |
| SW 900 | 0.389 | – | 0.442 | 0.451 | 0.558 | 0.466 | 0.625 | 0.399 | 0.326 | 0.333 | – | – | – | – | – | 0.903 | 0.935 | 1.15 | 0.797 | 0.549 |
